Measured values from patent publication US9434687B2, “Detection of synthetic cannabinoids” (priority 2011, dated 2016).
Read-outs that look alike come from different tables or passages of the source.

Assays:
Assay type in all cases: binding, sheep
[1] = test system: IgG fraction of antiserum raised to Immunogen I; details: Antibody to Immunogen I; cross-reactants at 100 ng/ml; 1000 ng/ml; standard JWH-018
Procedure: (§1) An aqueous solution of each immunogen was formulated with Freund's Complete Adjuvant (FCA) to form an emulsion consisting of 2 mg/ml*immunogen in 50% (v/v) FCA. Three sheep were immunised with this emulsion (1° immunisation), 0.25 ml being intramuscularly injected at each of four sites in the flank of each animal. Subsequent immunizations (boosts) contained 1 mg/ml*immunogen. All boosts were emulsified in 50% (v/v) Freund's Incomplete Adjuvant (FIA) and were administered in the same manner as the 1° immunisation, at monthly intervals. Blood sampling took place 7 to 14 days after each boost. *The general procedure for immunogen administration is outlined above, however, it was necessary to deviate from this protocol in some cases, due to reduced immunogen concentrations (Immunogens II, IV, VII and VIII) and/or amount available (Immunogen VIII). Any deviations from the protocol described are outlined in Table 5 below and highlighted in bold.
(§2) The wells of an enhanced binding 96 well polystyrene microtiter plate were coated with IgG fraction of antiserum raised to Immunogen I or II, diluted in 10 mM Tris, pH8.5 (125 μl/well). The appropriate antibody coating dilution was determined using standard ELISA checkerboard techniques. The plate was incubated overnight at 4° C., washed 4 times over 10 minutes with Tris buffered saline containing Tween 20 (TBST) and tapped dry. Standard solutions (JWH-018 for Immunogens I and II) were applied at 0, 0.625, 1.25, 2.5, 5, 10, 20 and 40 ng/ml and 50 μl of each was added to the appropriate wells. 75 μl of conjugate (appropriate hapten-HRP) diluted in Tris buffer (pH 7.2) containing EDTA, D-mannitol, sucrose, thimerosal and BSA, was added to each of the wells. The appropriate dilution of conjugate was also determined using standard ELISA checkerboard techniques. The plate was incubated at 25° C. for 1 hour. Excess unbound conjugate was removed by washing 6 times over a 10 minute period with TBST. 125 μl of tetramethylbenzidine (TMB) substrate solution was added to each well of the plate that was then incubated for 20 minutes in the dark at room temperature. The reaction was terminated by addition of 125 μl 0.2M H2SO4 to each well. The absorbance was then measured at 450 nm using a microtiter plate reader. The data are inputted to a computer program called ‘KC Junior’. It is a 4 parameter fit curve and allow the calculation of concentrations between the standard runs. This program is used to calculate the IC50s by dividing the 0 ng/ml OD value by 2 and obtaining the concentration value from the curve for this OD.
In a similar manner to that described above, the wells of a 96-well microtiter plate were coated with the IgG fraction of the antiserum raised to Immunogens I or II. Standard solutions (JWH-018 for Immunogen I and II) were applied at 0, 0.625, 1.25, 2.5, 5, 10, 20 and 40 ng/ml and conjugate was employed as detection reagent.
(§3) The data set out in Tables 7-10 are generated using antibodies raised against the indicated Immunogens in a competitive binding assay with the indicated tracers, using the indicated standards
(§4) In order to determine the specificity of the competitive ELISAs, standard solutions of a range of structurally similar synthetic cannabinoids and their metabolites were prepared in TBST.
(§5) Using the calibration curves generated and employing a single level of cross reactants, these were used to determine the cross-reactivity of each immunoassay with these substances. These are the standards used for the IC50 and cross-reactivity data generation: […]

[2] = test system: IgG fraction of antiserum raised to Immunogen VIII; details: Antibody to Immunogen VIII; cross-reactants at 100 ng/ml; 1000 ng/ml; standard JWH-018
Procedure: as §1, §2
(§6) In a similar manner to that described above, the wells of a 96-well microtiter plate were coated with the IgG fraction of the antiserum raised to Immunogens IV, VII or VIII. Standard solutions (JWH-018 for Immunogens IV and VIII, JWH-015 for Immunogen VII) were prepared in TBST at 0, 1.25, 2.5, 5, 10, 20, 40 and 80 ng/ml and conjugate was employed as detection reagent.
as §3, §4, §5

[3] = test system: IgG fraction of antiserum raised to Immunogen IV; details: Antibody to Immunogen IV; cross-reactants at 100 ng/ml; 1000 ng/ml; standard JWH-018
Procedure: as §1, §2, §6, §3, §4, §5

[4] = test system: IgG fraction of antiserum raised to Immunogen VII
Procedure: as §1, §2, §6, §3, §4, §5

[5] = test system: IgG fraction of antiserum raised to Immunogen II; experiment: Competitive ELISA, antibody RS1833B12 to Immunogen II, tracer ESC4555 (Example 36); details: Antibody to Immunogen II; cross-reactants at 100 ng/ml; 1000 ng/ml; standard JWH-018
Procedure: as §1
as §2, with “The” for “The wells of an enhanced binding 96 well polystyrene microtiter plate were coated with IgG fraction of antiserum raised to Immunogen I or II, diluted in 10 mM Tris, pH8.5 (125 μl/well). The”, “Standard solutions (JWH-018 for Immunogens I and II) were applied at 0, 0.625, 1.25, 2.5, 5, 10, 20 and 40 ng/ml and 50 μl of each was added to the appropriate wells.” left out, “runs.” for “runs. This program is used to calculate the IC50s by dividing the 0 ng/ml OD value by 2 and obtaining the concentration value from the curve for this OD.”
In a similar manner to that described above, the wells of a 96-well microtiter plate were coated with the IgG fraction of the antiserum raised to Immunogens I or II.
as §3, §5

[6] = Antibody to Immunogen VII, cross-reactants at 100 ng/ml, 1000 ng/ml, standard JWH-015

SMILES | % B/B0 [1] | % B/B0 [2] | % B/B0 [3] | % B/B0 [4, 6] | % B/B0 [5] | % B/B0 ([4]; JWH-015 1.25 ng/ml) | % B/B0 ([4]; JWH-015 2.5 ng/ml) | % B/B0 ([4]; JWH-015 5 ng/ml) | % B/B0 ([4]; JWH-015 10 ng/ml) | % B/B0 ([4]; JWH-015 20 ng/ml) | % B/B0 ([4]; JWH-015 40 ng/ml) | % B/B0 ([4]; JWH-015 80 ng/ml) | IC50 ([4]; Table 9 standard curve, standard concentration which produces 50% B/B0)
CCCC(C)n1cc(C(=O)c2cccc3ccccc23)c2ccccc21 (single isomer, unassigned) [JWH-018 N-(1-methylbutyl) isomer] | 12.42% | 63.22% | 73.49% | 67.71% | 51.92% | – | – | – | – | – | – | – | –
CCC(C)Cn1cc(C(=O)c2cccc3ccccc23)c2ccccc21 (single isomer, unassigned) [JWH-018 N-(2-methylbutyl) isomer] | 3.61% | 85.16% | 29.88% | 58.84% | 28.60% | – | – | – | – | – | – | – | –
CCCCn1cc(C(=O)c2cccc3ccccc23)c2c(O)cccc21 [4-OH JWH-073, JWH-073 4-hydroxyindole metabolite] | 39.50% | 26.23% | 28.69% | 82.82% | 40.14% | – | – | – | – | – | – | – | –
CCCCn1cc(C(=O)c2cccc3ccccc23)c2cc(O)ccc21 [5-OH JWH-073, JWH-073 5-hydroxyindole metabolite] | 7.34% | 90.70% | 84.06% | 75.11% | 20.73% | – | – | – | – | – | – | – | –
CCCCn1cc(C(=O)c2cccc3ccccc23)c2ccc(O)cc21 [6-OH JWH-073, JWH-073 6-hydroxyindole metabolite] | 5.93% | 93.52% | 74.89% | 61.83% | 28.03% | – | – | – | – | – | – | – | –
CCCCCn1cc(C(=O)c2cccc3ccccc23)c2cccc(O)c21 [7-OH JWH-018, JWH-018 7-hydroxyindole metabolite] | 6.72% | 94.46% | 93.31% | 68.53% | 34.79% | – | – | – | – | – | – | – | –
CCCCn1cc(C(=O)c2cccc3ccccc23)c2cccc(O)c21 [7-OH JWH-073, JWH-073 7-hydroxyindole metabolite] | 5.59% | 94.04% | 96.95% | 61.78% | 46.05% | – | – | – | – | – | – | – | –
CS(=O)(=O)O.Cc1c(C(=O)c2cccc3ccccc23)c2cccc3c2n1[C@H](CN1CCOCC1)CO3 [(+)WIN 55212-2] | 17.00% | 107.12% | 92.76% | 24.08% | 83.87% | – | – | – | – | – | – | – | –
O=C(c1cccc(I)c1)c1cn(CCCCCF)c2ccccc12 [AM-694 3-iodo isomer] | 31.37% | 12.71% | 37.20% | 89.49% | 48.58% | – | – | – | – | – | – | – | –
O=C(c1ccccc1I)c1cn(CCCCCF)c2ccccc12 [AM-694] | 12.17% | 11.92% | 11.30% | 75.66% | 36.18% | – | – | – | – | – | – | – | –
CN1CCCCC1Cn1cc(C(=O)c2cccc3ccccc23)c2ccccc21 (centres unmarked) [AM-1220] | 4.45% | 106.65% | 86.93% | 49.71% | 77.46% | – | – | – | – | – | – | – | –
O=C(c1cccc2ccccc12)c1cn(CCCC(O)CF)c2ccccc12 (centres unmarked) [AM-2201 N-(4-hydroxypentyl) metabolite] | 3.80% | 36.41% | 43.62% | 52.75% | 46.55% | – | – | – | – | – | – | – | –
CN1CCCCC1Cn1cc(C(=O)c2ccccc2I)c2ccccc21 (centres unmarked) [AM-2233] | 16.97% | 91.25% | 92.10% | 72.46% | 86.43% | – | – | – | – | – | – | – | –
CC(C)CCn1cc(C(=O)c2cccc3ccccc23)c2ccccc21 [JWH 018 N-(3-methylbutyl) isomer] | 3.16% | 53.29% | 12.75% | 48.81% | 30.38% | – | – | – | – | – | – | – | –
CCCCCCn1cc(C(=O)c2cccc3ccccc23)c2cc(O)ccc21 [JWH 019 5-hydroxyindole metabolite] | 19.81% | 101.57% | 93.84% | 87.58% | 17.34% | – | – | – | – | – | – | – | –
CCCCn1cc(C(=O)c2c(C)ccc3ccccc23)c2ccccc21 [JWH 073 2-methylnaphthyl analog] | 21.84% | 78.79% | 34.47% | 76.74% | 43.34% | – | – | – | – | – | – | – | –
CCCCCn1cc(C(=O)c2c(C)ccc3ccccc23)c2ccccc21 [JWH 122 2-methylnaphthyl isomer] | 33.35% | 61.74% | 26.13% | 85.37% | 27.14% | – | – | – | – | – | – | – | –
CCCCCn1cc(C(=O)c2cccc3cc(C)ccc23)c2ccccc21 [JWH 122 6-methylnaphthyl isomer] | 12.55% | 20.46% | 8.12% | 86.66% | 39.17% | – | – | – | – | – | – | – | –
CCCCCn1cc(C(=O)c2cccc3ccc(C)cc23)c2ccccc21 [JWH 122 7-methylnaphthyl isomer] | 36.46% | 38.48% | 13.48% | 92.44% | 38.28% | – | – | – | – | – | – | – | –
CCCCCn1c(C)c(C(=O)c2cccc3ccccc23)c2ccccc21 [JWH-007] | 32.96% | 61.76% | 60.63% | 27.77% | 66.06% | – | – | – | – | – | – | – | –
CCCn1c(C)c(C(=O)c2cccc3ccccc23)c2ccccc21 [JWH-015] | 14.67% | 92.27% | 93.20% | 17.84% | 65.67% | 75% | 62% | 54% | 43% | 34% | 26% | 20% | 5.910 ng/mL
